Data reported in patent US20030083366A1, “Combination chemotherapy” (priority 2001, published 2003).
Values joined by “and” are separate entries in the source; they are usually repeats but may differ in a detail not shown here. Identical values can stand only once. Like-named read-outs stand apart in the source and are kept apart here.

Key:
[1] = Route of elimination of radiolabeled drug, monkeys; type: in vivo; conditions: within 24 hours
Method: (§1) Mass balance/route of elimination studies have not been conducted in humans. Animal studies indicate that the principal route of elimination is via renal excretion, with 80% and 62% of radiolabeled drug appearing in the urine of monkeys and rats, respectively, within 24 hours.

[2] = Phase 1 study, once daily high-dose 5-day schedule, relapsed acute leukemia or other hematologic malignancy; type: in vivo
Method: An additional Phase 1 study was conducted in patients with relapsed acute leukemia or other hematologic malignancy using a once daily high-dose 5-day dosing schedule. […] Hematologic toxicities cannot be assessed in this patient population. Two patients with AML developed tumor lysis syndrome, resulting in one death. Transient decreases in peripheral white blood cell counts were noted.

[3] = LC-12 squamous cell lung carcinoma implanted subcutaneously in BALB/C mice, chemotherapy study; type: in vivo, female BALB/C mice; conditions: female, mouse, in vivo, tumor-bearing BALB/C mice
Method: (§2) The synergistic combinations provided by this invention have been evaluated in standard chemotherapy studies using female BALB/C mice weighing 18 to 20 g. The test mice were obtained from Charles River Laboratories, Wilmington, Mass. On Day 0 of the test, each mouse was surgically implanted (subcutaneously) with a fragment of LC-12 squamous cell lung carcinoma tumor weighing approximately 30 to 60 mg. The tumor fragments were implanted using a 12 gauge trocar. The mice were weighed weekly, and tumor size (width and length in mm) were measured two times each week with standard calipers. Tumor mass for each animal was calculated according to the formula: [formula]
(§3) where “a” is width of the tumor in mm, and “b” is the length in mm. Evaluation of anticancer activity was established by the formula T-C, where “T” and “C” are the median time (in days) required for the treated and control (respectively) tumors to reach a predetermined size of about 750 mg (the “evaluation size”). Tumors generally reached size of about 150 to about 200 mg before drug dosing was initiated. Antitumor activity was assessed according to four parameters: (1) partial tumor response (PR); (2) complete tumor response (CR); (3) tumor-free survival (TF); and (4) tumor growth delay (TL). Tumor growth delay is expressed as a T-C value, where T is the median days required for the treatment group tumors to reach a predetermined size (e.g., 750 mg), and C is the median days for the control group tumors to reach this size. From the tumor growth delay value, the net log10 tumor cell kill is calculated as follows:
(§4) Net log10 tumor cell kill=[(T−C)−Rx]/3.32×Td
(§5) where Td is the days for the tumor mass to double, and Rx is the total days of treatment. Td is estimated from the best fit straight line from a log-linear plot of the control-group tumors in exponential growth (200 to 800 mg range). The conversion of the T-C values to log10 cell kill is possible because the Td for tumors regrowing after treatment is approximately the same as that for untreated control mice. The net log10 kill value normalizes the efficacy data for tumor growth during treatment regimens of varied duration and provides an estimate of whether an actual regression of the tumor occurred. Positive values indicate that an actual reduction of tumor burden occurred. Negative values indicate the tumor actually grew (although possibly more slowly) during treatment. Tumor-free survivors were excluded from these calculations.
(§6) Acetyldinaline was suspended in 0.5% aqueous methyl cellulose and administered orally at various dosages in 0.5 mL volumes. Docetaxel was dissolved in 5% ethanol, 5% Tween 80, 90% aqueous saline and administered intravenously at various dosage levels in 0.2 mL injections.
(§7) The animals were divided into groups of 10 animals each. One group served as controls and received vehicle alone, with no drug treatments. Two groups received oral doses of acetyldinaline alone at a specified level (as shown in Table 3) of active drug (30 mg/kg and 60 mg/kg). […] Three groups received docetaxel alone at doses of 3.5, 5.6, and 9.0 mg/kg. Two groups received acetyldinaline at the recited doses, in combination with 3.5 mg/kg of docetaxel, and another two groups received acetyldinaline at the recited doses in combination with docetaxel at […], and the final two groups received acetyldinaline at the recited doses, in combination until 9.0 mg/kg of docetaxel.

[4] = system: LC-12 squamous cell lung carcinoma tumor; assay: as above; type: in vivo, female BALB/C mice; conditions: for antitumor effect of the agents individually: single agent
Method: as §2, §3, §4, §5, §6, §7

[5] = Route of elimination of radiolabeled drug, rats; type: in vivo; conditions: within 24 hours
Method: as §1

[6] = Phase 1 dose-escalation study of CI-994 in solid tumor patients; type: in vivo
Method: In one such study, patients were treated using a dose-escalation scheme that increased both the daily dose and the duration of treatment. The majority of patients had received extensive prior chemotherapy. The maximum-tolerated dose (MTD) was 15 mg/m^2/day when the duration of treatment was 14 consecutive days. To allow more prolonged treatment, lower doses were studied. Using a schedule of 8 weeks of continuous daily therapy, followed by a 2-week ‘drug holiday’, the MTD was 8 mg/m^2/day. […] Blood counts tended to stabilize even with continued treatment and to recover quickly when treatment was stopped.

[7] = Pharmacokinetics and food effect in the solid tumor Phase 1 study; type: in vivo, patients; conditions: oral, after a fasting period
[8] = CI-994 30.0 mg/kg/injection oral, Days 11-13, 15-17, 19-21, alone
[9] = CI-994 60 mg/kg/day (MTD), alone
[10] = CI-994 60.0 mg/kg/injection oral, Days 11-13, 15-17, 19-21, alone
[11] = Docetaxel 3.5 mg/kg/injection iv, Days 11, 15, 19, alone
[12] = Docetaxel 5.6 mg/kg/injection iv, Days 11, 15, 19, alone
[13] = Docetaxel 9.0 mg/kg/injection iv, Days 11, 15, 19, alone

CC(=O)Nc1ccc(C(=O)Nc2ccccc2N)cc1 [CI-994, 4-acetylamino-N-(2′-aminophenyl)-benzamide]
radiolabeled drug appearing in the urine [1]: 80%
Clinical benefit (8 mg/m^2 given orally daily): reported in patients with renal cell cancer
Objective responses (8 mg/m^2 given orally daily): seen in patients with nonsmall cell lung cancer
dose-limiting toxicity (in vivo, po): Thrombocytopenia
Other adverse events ([2]; in vivo): nausea, vomiting, hypotension resulting from dehydration, hypocalcemia, headache
dose-limiting toxicity ([2]; in vivo): acute CNS toxicity manifested as sedation and somnolence
MTD ([2]; once daily high-dose 5-day dosing schedule): 135 mg/m^2/day
MTD ([3]; oral): 60 mg/kg/day
partial tumor response ([4]; CI-994 30 mg/kg/day (50% its MTD), alone): 20%
% Weight Change [4, 8]: −5.5%
Net Log10 Kill [4, 8]: −0.5 log10
Non-specific Deaths [4, 8]: 0/10
PR (partial response) [4, 8]: 2/10
T − C (tumor growth delay to 750 mg) [4, 8]: 4.6 days
Tumor Free (Day 105) [4, 8]: 0/10
CR (complete response) ([4]; CI-994 30.0 mg/kg/injection oral, Days 11-13, 15-17, 19-21, alone, 30 mg/kg): no complete tumor responses and 0/10
complete tumor response rate [4, 9]: 40%
partial tumor response [4, 9]: 10%
mice tumor free when the study ended ([4]; CI-994 60 mg/kg/day (MTD), alone, 105 days after the last CI-994 treatment): 30%
% Weight Change [4, 10]: −10.5%
CR (complete response) [4, 10]: 4/10
Net Log10 Kill [4, 10]: −0.3 log10
Non-specific Deaths [4, 10]: 0/10
PR (partial response) [4, 10]: 1/10
T − C (tumor growth delay to 750 mg) [4, 10]: 4.9 days
Tumor Free (Day 105) [4, 10]: 3/10
antitumor effect of the agents individually [4]: only modest antitumor efforts
radiolabeled drug appearing in the urine [5]: 62%
MTD ([6]; 8 weeks of continuous daily therapy followed by a 2-week drug holiday): 8 mg/m^2/day
Responses ([6]; Phase 1 patients): one partial response in a heavily pretreated patient with NSCLC and a minor response in one patient each with renal cell cancer and NSCLC
Other toxicities ([6]; human, in vivo): nausea, vomiting, diarrhea, anorexia, fatigue, mucositis, headache, dehydration, and increases in liver and renal function test values
cumulative toxicity ([6]; human, in vivo): no evidence of cumulative toxicity
dose-limiting toxicity ([6]; human, in vivo): thrombocytopenia or neutropenia
time of occurrence of dose-limiting toxicity after start of therapy ([6]; human, in vivo): ≤ 1 month
maximum-tolerated dose (MTD) ([6]; treatment for 14 consecutive days, patients mostly with extensive prior chemotherapy): 15 mg/m^2/day
half-life ([7]; human, plasma, preliminary results, read-out: terminal elimination half-life (converted)): ~15 h
maximum plasma CI-994 concentrations with increasing dose levels [7]: less than dose-proportional
terminal elimination half-life and apparent clearance rate versus dose [7]: independent of the dose administered

CC(=O)O[C@@]12CO[C@@H]1C[C@H](O)[C@@]1(C)C(=O)[C@H](O)C3=C(C)[C@@H](OC(=O)[C@H](O)[C@@H](NC(=O)OC(C)(C)C)c4ccccc4)C[C@@](O)([C@@H](OC(=O)c4ccccc4)[C@H]21)C3(C)C [Docetaxel]
MTD ([3]; intravenous, read-out: MTD of docetaxel): 9 mg/kg/day
% Weight Change [4, 11]: −7.3%
CR (complete response) [4, 11]: 0/10
Non-specific Deaths [4, 11]: 0/10
PR (partial response) [4, 11]: 0/10
T − C (tumor growth delay to 750 mg) [4, 11]: -1.7 days
Tumor Free (Day 105) [4, 11]: 0/10
% Weight Change [4, 12]: −11.7%
CR (complete response) [4, 12]: 0/10
Non-specific Deaths [4, 12]: 1/10
PR (partial response) [4, 12]: 1/10
T − C (tumor growth delay to 750 mg) [4, 12]: -0.5 days
Tumor Free (Day 105) [4, 12]: 0/10
% Weight Change [4, 13]: −16.7%
CR (complete response) [4, 13]: 0/10
Net Log10 Kill [4, 13]: −0.2 log10
Non-specific Deaths [4, 13]: 1/10
PR (partial response) [4, 13]: 3/10
T − C (tumor growth delay to 750 mg) [4, 13]: 3.3 days
Tumor Free (Day 105) [4, 13]: 0/10
CR (complete response) ([4]; Docetaxel 9.0 mg/kg/injection iv, Days 11, 15, 19, alone, listed as docetaxel): no complete tumor responses
partial tumor responses ([4]; docetaxel 9 mg/kg/day (MTD), alone): 30%
antitumor effect of the agents individually [4]: only modest antitumor efforts
